Source: patent US9046767B2, “Photoacid generator, photoresist, coated substrate, and method of forming an electronic device” (ROHM AND HAAS ELECTRONIC MATERIALS LLC, priority 2013, dated 2015)

Assay: Solubility evaluation of photoacid generators in organic solvents
Format: physicochemical
Details: 2 weight percent, room temperature; for Solubility in 2-Heptanone: solvent 2-Heptanone; for Solubility in PGMEA: solvent PGMEA; for Solubility in 2-Hepanone/n-Butyl Propionate (1:1 w/w): solvent blend 1:1 w/w; for Solubility in n-Butyl Acetate: solvent n-Butyl Acetate
Experimental: The photoacid generators were evaluated for solubility in a selection of organic solvents. Solubility of each of the compounds PAG-2, PAG-A1, PAG-A2 were obtained for attempts to completely dissolve the PAG at 2 weight percent at room temperature in different organic solvents and solvent blends. The results for the solubility tests (i.e., where the PAG is observed to be completely soluble in the solvent, or is only partially soluble or insoluble based on the presence of insoluble material) are shown in Table 1, where “O” indicates solubility at 2 weight percent, and “X” indicates partial solubility or insolubility at 2 weight percent.

Molecule: CC1(C)OCC(C2OC(C)(C)OC2COC(=O)COc2ccc([S+](c3ccccc3)c3ccccc3)cc2)O1.O=C(OCC12CC3CC(CC(O)(C3)C1)C2)C(F)(F)S(=O)(=O)[O-] (stereo not drawn) [PAG-A2, 4-(2-oxo-2-(2,2,2′,2′-tetramethyl-4,4′-bis(1,3-dioxolan)-5-yl-methoxyethoxy)phenyl)diphenylsulfonium 1,1-difluoro-2-(3-hydroxyadamantan-1-yl-methoxy)-2-oxoethanesulfonate]
- Solubility in 2-Heptanone: ◯
- Solubility in PGMEA: ◯
- Solubility in 2-Hepanone/n-Butyl Propionate (1:1 w/w): ◯
- Solubility in n-Butyl Acetate: ◯

Molecule: 4-(2-oxo-2-(2,2,2′,2′-tetramethyl-4,4′-bis(1,3-dioxolan)-5-yl-methoxyethoxy)phenyl)diphenylsulfonium 1-adamantyl-3,3,4,4-tetrafluorobutane sulfonate [PAG-A1]
- Solubility in 2-Heptanone: ◯
- Solubility in PGMEA: ◯
- Solubility in 2-Hepanone/n-Butyl Propionate (1:1 w/w): ◯
- Solubility in n-Butyl Acetate: ◯

Molecule: Triphenylsulfonium 1,1-difluoro-2-((-3-hydroxyadamantan-1-yl)methoxy)-2-oxoethanesulfonate [C. PAG 2, reference compound]
- Solubility in 2-Heptanone: X (“X” indicates partial solubility or insolubility at 2 weight percent)
- Solubility in PGMEA: X (“X” indicates partial solubility or insolubility at 2 weight percent)
- Solubility in 2-Hepanone/n-Butyl Propionate (1:1 w/w): X (“X” indicates partial solubility or insolubility at 2 weight percent)
- Solubility in n-Butyl Acetate: X (“X” indicates partial solubility or insolubility at 2 weight percent)
